Measurements: ChEMBL document CHEMBL5154837, “Discovery, optimization and evaluation of 1-(indolin-1-yl)ethan-1-ones as novel selective TRIM24/BRPF1 bromodomain inhibitors” (Eur J Med Chem, 2022)
Activity calls are given as the source filed them. The calls are words filed in the database; no cut-off is given here.

What was measured:
[1] = Apparent permeability of the compound across apical to basolateral side in human Caco-2 cells at 10 uM incubated for 120 mins assessed as drug recovery and measured by LC-MS/MS analysis
[2] = Apparent permeability of the compound across basolateral to apical side in human Caco-2 cells at 10 uM incubated for 120 mins assessed as drug recovery and measured by LC-MS/MS analysis
[3] = Apparent permeability of the compound across basolateral to apical side in human Caco-2 cells at 10 uM incubated for 120 mins and measured by LC-MS/MS analysis
[4] = Apparent permeability of the compound across apical to basolateral side in human Caco-2 cells at 10 uM incubated for 120 mins and measured by LC-MS/MS analysis
[5] = target: T1, Transcription intermediary factor 1-alpha (Homo sapiens, UniProt O15164); assay: Inhibition of TRIM24 (unknown origin) measured alphascreen assay
T1 sequence (O15164 whole entry): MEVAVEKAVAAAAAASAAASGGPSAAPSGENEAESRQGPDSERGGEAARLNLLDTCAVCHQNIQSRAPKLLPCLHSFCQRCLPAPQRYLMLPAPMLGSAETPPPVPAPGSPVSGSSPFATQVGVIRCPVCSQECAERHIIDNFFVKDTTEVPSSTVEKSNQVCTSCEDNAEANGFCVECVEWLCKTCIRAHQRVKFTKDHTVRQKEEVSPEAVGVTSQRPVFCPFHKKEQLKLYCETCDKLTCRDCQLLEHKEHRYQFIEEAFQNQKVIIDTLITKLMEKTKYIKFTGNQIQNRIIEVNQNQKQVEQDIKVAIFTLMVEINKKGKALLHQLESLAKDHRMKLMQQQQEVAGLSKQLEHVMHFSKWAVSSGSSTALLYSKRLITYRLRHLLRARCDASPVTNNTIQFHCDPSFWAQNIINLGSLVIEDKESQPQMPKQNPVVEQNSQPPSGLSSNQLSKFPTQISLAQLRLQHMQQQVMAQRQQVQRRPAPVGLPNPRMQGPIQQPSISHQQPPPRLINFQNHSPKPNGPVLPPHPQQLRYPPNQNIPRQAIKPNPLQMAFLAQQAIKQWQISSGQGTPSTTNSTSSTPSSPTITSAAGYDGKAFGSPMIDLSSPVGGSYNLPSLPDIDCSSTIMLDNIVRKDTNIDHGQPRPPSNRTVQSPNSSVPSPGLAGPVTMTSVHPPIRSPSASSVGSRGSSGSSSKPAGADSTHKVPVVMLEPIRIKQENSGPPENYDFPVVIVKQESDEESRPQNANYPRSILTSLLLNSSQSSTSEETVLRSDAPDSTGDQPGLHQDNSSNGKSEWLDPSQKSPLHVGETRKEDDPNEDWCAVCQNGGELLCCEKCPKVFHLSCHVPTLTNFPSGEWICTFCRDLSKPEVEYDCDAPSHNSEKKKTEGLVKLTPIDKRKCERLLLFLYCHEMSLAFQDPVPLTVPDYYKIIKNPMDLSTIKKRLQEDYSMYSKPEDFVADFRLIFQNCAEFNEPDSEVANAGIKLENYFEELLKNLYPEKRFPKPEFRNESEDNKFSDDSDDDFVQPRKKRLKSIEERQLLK

[6] = Efflux ratio of apparent permeability from basolateral to apical side over apical to basolateral side in human Caco-2 cells at 10 uM incubated for 120 mins and measured by LC-MS/MS analysis
CWR22R [7] = assay: Antiproliferative activity against human 22Rv1 cells measured after 96 hrs by Cell Titer-Glo assay; format: functional, cell-based; details: 22Rv1, 96 h
LNCaP [8] = assay: Antiproliferative activity against human LNCaP cells measured after 96 hrs by Cell Titer-Glo assay; format: functional, cell-based
CWR22R [9] = assay: Antitumor activity against human 22Rv1 cells xenografted in […] mouse assessed as tumor growth inhibition at 50 mg/kg, ip administered once daily for 21 days; format: functional; details: 22Rv1, 504 h, time 21 day, read-out: TGI
LNCaP C4-2B [10] = assay: Inhibition of clonogenicity in human LNCaP C4-2B cells assessed as reduction in colony formation at 1 uM measured by crystal violet staining based analysis; format: functional
LNCaP C4-2B [11] = assay: Antiproliferative activity against human LNCaP C4-2B cells measured after 96 hrs by Cell Titer-Glo assay; format: functional, cell-based
Peregrin = target: T2, Peregrin (Homo sapiens, UniProt P55201); assay: Inhibition of BRPF1 (unknown origin) measured alphascreen assay
T2 sequence (P55201 whole entry): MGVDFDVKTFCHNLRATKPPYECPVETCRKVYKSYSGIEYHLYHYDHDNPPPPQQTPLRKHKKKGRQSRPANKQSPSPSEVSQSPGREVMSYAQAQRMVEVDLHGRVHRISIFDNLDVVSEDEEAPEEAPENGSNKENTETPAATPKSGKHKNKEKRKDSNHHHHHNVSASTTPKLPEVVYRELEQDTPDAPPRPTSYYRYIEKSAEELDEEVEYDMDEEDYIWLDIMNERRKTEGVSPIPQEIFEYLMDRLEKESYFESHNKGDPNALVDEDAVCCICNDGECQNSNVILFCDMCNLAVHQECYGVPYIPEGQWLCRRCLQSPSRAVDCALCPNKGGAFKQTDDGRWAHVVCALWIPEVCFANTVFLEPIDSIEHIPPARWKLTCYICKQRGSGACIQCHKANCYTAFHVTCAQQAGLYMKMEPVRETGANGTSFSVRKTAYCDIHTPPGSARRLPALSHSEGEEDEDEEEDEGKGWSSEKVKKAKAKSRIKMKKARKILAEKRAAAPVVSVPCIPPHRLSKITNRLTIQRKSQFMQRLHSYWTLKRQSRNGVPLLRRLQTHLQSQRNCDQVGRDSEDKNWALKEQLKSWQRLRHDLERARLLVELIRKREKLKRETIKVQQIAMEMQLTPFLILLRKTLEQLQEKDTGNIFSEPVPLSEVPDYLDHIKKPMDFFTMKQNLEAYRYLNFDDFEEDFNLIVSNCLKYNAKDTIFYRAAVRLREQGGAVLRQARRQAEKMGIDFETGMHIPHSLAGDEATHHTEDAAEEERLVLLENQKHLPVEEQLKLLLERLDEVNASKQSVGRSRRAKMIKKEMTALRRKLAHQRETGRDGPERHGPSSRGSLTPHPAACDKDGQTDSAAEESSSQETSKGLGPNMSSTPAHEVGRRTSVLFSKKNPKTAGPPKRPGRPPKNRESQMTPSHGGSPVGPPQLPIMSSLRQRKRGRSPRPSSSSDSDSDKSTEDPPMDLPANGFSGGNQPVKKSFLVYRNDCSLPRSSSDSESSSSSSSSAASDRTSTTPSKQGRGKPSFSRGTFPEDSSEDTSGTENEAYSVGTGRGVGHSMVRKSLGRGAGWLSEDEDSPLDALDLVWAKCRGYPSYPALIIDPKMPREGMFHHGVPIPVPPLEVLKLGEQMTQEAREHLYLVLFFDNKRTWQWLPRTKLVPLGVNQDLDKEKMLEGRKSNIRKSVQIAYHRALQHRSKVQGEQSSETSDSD

CWR22R [12] = assay: Downregulation of PSA mRNA expression in human 22Rv1 cells at 5 uM measured by RT-PCR analysis; format: functional, cell-based
CWR22R [13] = assay: Downregulation of AR-V7 mRNA expression in human 22Rv1 cells at 5 uM measured by RT-PCR analysis; format: functional, cell-based
CWR22R [14] = assay: Inhibition of clonogenicity in human 22Rv1 cells assessed as reduction in colony formation at 1 uM measured by crystal violet staining based analysis; format: functional
LNCaP [15] = assay: Suppression of PSA gene expression in human LNCaP cells assessed as mRNA level at 0.4 to 10 uM measured by luciferase gene reporter assay; format: functional, cell-based; details: dose 0.4-10 µM
[16] = Toxicity in […] mouse xenografted with human 22Rv1 cells assessed as body weight loss at 50 mg/kg, ip administered once daily for 21 days; format: organism-based, CWR22R; details: in vivo, 504 h, time 21 day
CWR22R [17] = assay: Downregulation of C-MYC mRNA expression in human 22Rv1 cells at 5 uM measured by RT-PCR analysis; format: functional, cell-based
CWR22R [18] = assay: Downregulation of full-length AR mRNA expression in human 22Rv1 cells at 5 uM measured by RT-PCR analysis; format: functional, cell-based
CWR22R [19] = assay: Downregulation of TMPRSS2 mRNA expression in human 22Rv1 cells at 5 uM measured by RT-PCR analysis; format: functional, cell-based
CWR22R [20] = assay: Downregulation of KLK2 mRNA expression in human 22Rv1 cells at 5 uM measured by RT-PCR analysis; format: functional, cell-based

Structure (SMILES) | recovery at 2 h, 10 µM [1] [%] | recovery at 2 h, 10 µM [2] [%] | Papp B→A at 2 h, 10 µM [3] [×10⁻⁶ cm/s] | IC50 [5] [nM] | IC50 (LNCaP [8]) [nM] | IC50 (LNCaP C4-2B [11]) [nM] | IC50 (CWR22R [7]) [nM] | other results
CC(C)NCC(O)COc1ccc(CC(N)=O)cc1 (stereo not given) [ATENOLOL] | 92.7 | 92.3 | – | – | – | – | – | –
CC(C)NCC(O)COc1cccc2ccccc12 (stereo not given) [PROPRANOLOL] | 78.5 | 99.2 | 20.9 | – | – | – | – | Papp A→B at 2 h, 10 µM [4]: 22.1 ×10⁻⁶ cm/s
C[C@H]1O[C@@H](O[C@H]2[C@@H](O)C[C@H](O[C@H]3[C@@H](O)C[C@H](O[C@H]4CC[C@@]5(C)[C@H](CC[C@@H]6[C@@H]5C[C@@H](O)[C@]5(C)[C@@H](C7=CC(=O)OC7)CC[C@]65O)C4)O[C@@H]3C)O[C@@H]2C)C[C@H](O)[C@@H]1O [DIGOXIN] | 88.8 | 98.6 | 8.97 | – | – | – | – | efflux ratio at 2 h, 10 µM [6]: 9.69

More lines, main results first:

recovery at 2 h, 10 µM [1] [%] | recovery at 2 h, 10 µM [2] [%] | Papp B→A at 2 h, 10 µM [3] [×10⁻⁶ cm/s] | IC50 [5] [nM] | IC50 (LNCaP [8]) [nM] | IC50 (LNCaP C4-2B [11]) [nM] | Structure (SMILES) | IC50 (CWR22R [7]) [nM] | other results
– | – | – | 38400 | – | – | COc1cccc(NS(=O)(=O)c2ccc3c(c2)CCN3C(C)=O)c1 | – | –
– | – | – | 980 | 1070 | 780 | COc1ccc(C2CC2)cc1S(=O)(=O)Nc1ccc2c(c1)CCN2C(C)=O | 820 | inhibition in vivo at 50 mg/kg (CWR22R [9]): 53%; inhibition at 1 µM (LNCaP C4-2B [10]): < 5%; IC50 (Peregrin): 1160 nM; Activity (CWR22R [12]): Active; Activity (CWR22R [13]): Active; inhibition at 1 µM (CWR22R [14]): < 5%; Activity (LNCaP [15]): Active; Activity [16]: Non-Toxic; Activity (CWR22R [17]): Active; Activity (CWR22R [18]): Active; Activity (CWR22R [19]): Active; Activity (CWR22R [20]): Active
– | – | – | – | 12200 | 13600 | CCCOc1cc(OCCCCN(C)C)cc(Oc2cc3c(cc2NS(=O)(=O)c2ccc(OC)c(OC)c2)n(C)c(=O)n3C)c1 | 10800 | –
